Results: patent publication US8173694B2, “Therapeutic agent” (Pentraxin Therapeutics Limited, priority 2001, dated 2012)
Entries after “also recorded” stand apart in the source; their conditions may differ.

Columns and labels:
SAP in whole human serum = target: T1, SAP in whole human serum (Homo sapiens, UniProt P02743); assay: Size exclusion chromatography of whole human serum mixed with drug: SAP; type: binding
T1 construct: Aliquots of a single pool of whole normal human serum, containing SAP and CRP; from tissue; host or cells: pooled whole normal human serum
T1 sequence (P02743 20-223): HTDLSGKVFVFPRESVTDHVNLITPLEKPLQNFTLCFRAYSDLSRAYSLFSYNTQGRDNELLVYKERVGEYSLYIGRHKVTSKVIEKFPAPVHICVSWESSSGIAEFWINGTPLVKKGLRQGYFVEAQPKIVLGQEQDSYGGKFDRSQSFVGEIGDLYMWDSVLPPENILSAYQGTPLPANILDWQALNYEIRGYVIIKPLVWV
Procedure: (§1) Aliquots of a single pool of whole normal human serum, containing SAP and CRP, were mixed with (R)-1-[6-(R)-2-Carboxy-pyrrolidin-1-yl]-6-oxo-hexanoyl]pyrrolidine-2-carboxylic acid at the molar ratios shown, with respect to pentraxin protomer, and analysed by size exclusion chromatography precisely as described previously (14). The mixtures and the column eluants contained either no calcium ions or 2 mM calcium, and the concentrations of drug appropriate to maintain the molar ratios indicated above. SAP in whole serum is a stable soluble pentameric assembly of protomers, stabilised by the presence of the normal high concentration of serum albumin. However as SAP is separated from serum albumin during gel filtration with a calcium containing eluant, the SAP autoaggregates and elutes entirely as high molecular weight polymers in the void volume of the column. This is because, in the absence of a specific ligand to which it can bind, isolated human SAP is insoluble in the presence of calcium (14). However in the absence of calcium, where no ligand binding or autoaggregation can occur, SAP forms stable decamers, providing an excellent marker for the elution volume of this molecular assembly (14). Human CRP is a stable pentamer either in the presence or absence of calcium and thus provides a robust marker for the elution position of that molecular form (14).

CRP in whole human serum = target: T2, CRP in whole human serum (Homo sapiens, UniProt P02741); assay: Size exclusion chromatography of whole human serum mixed with drug: CRP; type: binding
T2 construct: Aliquots of a single pool of whole normal human serum, containing SAP and CRP; from tissue; host or cells: pooled whole normal human serum
T2 sequence (P02741 19-224): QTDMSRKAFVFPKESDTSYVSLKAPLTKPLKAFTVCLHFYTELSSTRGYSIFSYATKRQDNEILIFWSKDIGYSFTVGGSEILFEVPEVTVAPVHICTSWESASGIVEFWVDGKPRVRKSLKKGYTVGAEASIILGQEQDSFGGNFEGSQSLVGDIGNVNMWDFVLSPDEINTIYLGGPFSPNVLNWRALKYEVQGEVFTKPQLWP
Procedure: as §1

125I-labelled human SAP = target: T3, 125I-labelled human SAP (Homo sapiens, UniProt P02743); assay: Human SAP tracer in amyloid deposits of mice with AA amyloidosis; type: in vivo, mouse
T3 construct: intravenous injection of ^125I-labelled pure human or mouse SAP at time zero
T3 sequence (P02743 20-223): as the sequence (P02743 20-223) above
Procedure: (§2) Clearance from the amyloid deposits, catabolism and excretion of the human SAP tracer were monitored globally by whole body counting of the mice (left), and the total amount of mouse SAP in the amyloidotic organs was determined after killing the animals on day 5 (right). […] Immediately after the 15 minute bleed, two groups, one that had received human SAP and the other mouse SAP, received a single intraperitoneal injection of 5 mg of (R)-1-[6-(R)-2-Carboxy-pyrrolidin-1-yl]-6-oxo-hexanoyl]pyrrolidine-2-carboxylic acid (desapin). Tracer remaining in the circulation is expressed as the mean (SD) percentage of the amount at the 15 minute time point for each group. […] In one of each of the pairs of groups receiving mouse or human SAP respectively, the tracer had been mixed with (R)-1-[6-(R)-2-Carboxy-pyrrolidin-1-yl]-6-oxo-hexanoyl]pyrrolidine-2-carboxylic acid (desapin) and incubated in vitro before injection into the animals. Tracer remaining in the circulation is expressed as mean (SD) total radioactivity per gram of blood in each group. Bottom panel: effect of administration of (R)-1-[6-(R)-2-Carboxy-pyrrolidin-1-yl]-6-oxo-hexanoyl]pyrrolidine-2-carboxylic acid (desapin) in the drinking water at the concentrations shown, on circulating human SAP values in human SAP transgenic mice. Mice of approximately 20 g body weight consume about 3 ml water per day.
When (R)-1-[6-(R)-2-Carboxy-pyrrolidin-1-yl]-6-oxo-hexanoyl]pyrrolidine-2-carboxylic acid was administered by continuous infusion for 5 days via an indwelling osmotic pump, it dissociated both radiolabelled human SAP tracer, with which the amyloid deposits had previously been loaded, and all the endogenous mouse SAP in the deposits (FIG. 3). […] The SAP-(R)-1-[6-(R)-2-Carboxy-pyrrolidin-1-yl]-6-oxo-hexanoyl]pyrrolidine-2-carboxylic acid complex is evidently recognised as abnormal in vivo and swiftly removed from the circulation, but is apparently formed and/or cleared less efficiently in vivo with mouse SAP compared to human SAP.

radiolabelled mouse SAP = target: T4, radiolabelled mouse SAP (Mus musculus, UniProt P12246); assay: Plasma clearance of radiolabelled mouse SAP tracer in mice; type: in vivo
T4 construct: intravenous injection of ^125I-labelled pure human or mouse SAP at time zero
T4 sequence (P12246 21-224): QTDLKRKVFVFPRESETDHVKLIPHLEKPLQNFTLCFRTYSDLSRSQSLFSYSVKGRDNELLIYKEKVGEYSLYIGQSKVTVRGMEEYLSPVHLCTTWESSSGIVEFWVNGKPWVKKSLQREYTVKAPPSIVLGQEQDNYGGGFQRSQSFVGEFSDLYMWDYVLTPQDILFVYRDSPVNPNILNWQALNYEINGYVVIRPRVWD
Procedure: as §2, with “day. […]” for “day.”

SAP = SAP (Homo sapiens, UniProt P02743); assay: Circulating human SAP in human SAP transgenic mice, drug in drinking water; type: in vivo, mouse; parameters: on circulating human SAP values in human SAP transgenic mice; from tissue; host or cells: plasma of human SAP transgenic mice; conditions: drug in the drinking water
SAP, sequence (P02743 20-223): as the sequence (P02743 20-223) above
Procedure: as §2, with “day. […]” for “day.”

[1] = drug:protein 1:1, calcium present
[2] = drug:protein 10:1, calcium present
[3] = drug:protein 100:1, calcium present

**Q.** Which results are given for `O=C(O)[C@H]1CCCN1C(=O)CCCCC(=O)N1CCC[C@@H]1C(=O)O` [(R)-1-[6-(R)-2-Carboxy-pyrrolidin-1-yl]-6-oxo-hexanoyl]pyrrolidine-2-carboxylic acid]?
**A.** Molecular assembly (SAP in whole human serum; [1]): some of the SAP was solubilised as stable drug-decamer complexes; also recorded: High MW; Molecular assembly (SAP in whole human serum; [2]): High MW; also recorded: Decamer; Elution volume (SAP in whole human serum; [3]): 10.0 to 10.5 mL; Molecular assembly (SAP in whole human serum; [3]): all the SAP was in this form; also recorded: Decamer; Elution volume (CRP in whole human serum; [1]): 12.0 to 12.5 mL; Molecular assembly (CRP in whole human serum; [1]): Pentamer; Elution volume (CRP in whole human serum; [2]): 12.0 to 12.5 mL; Molecular assembly (CRP in whole human serum; [2]): Pentamer; Elution volume (CRP in whole human serum; [3]): 12.0 to 12.5 mL; Molecular assembly (CRP in whole human serum; [3]): Pentamer; Dissociation of human SAP from amyloid deposits (125I-labelled human SAP; 50 μg/kg/day, continuous infusion): significantly dissociated; Dissociation of radiolabelled human SAP tracer from amyloid deposits (125I-labelled human SAP; continuous infusion for 5 days via osmotic pump): dissociated; Uptake of radiolabelled human SAP tracer into mouse AA amyloid deposits (125I-labelled human SAP; intermittent intraperitoneal or subcutaneous injection): inhibited uptake; Clearance of radiolabelled mouse SAP (radiolabelled mouse SAP; single intraperitoneal injection of 5 mg): no significant effect; Clearance of radiolabelled mouse SAP preincubated with drug in vitro (radiolabelled mouse SAP; tracer preincubated with drug before intravenous injection into normal mice): extremely rapidly cleared; Circulating human SAP (SAP): rapidly depleted
